# Test results reported in ChEMBL document CHEMBL1641539 (Bioorg Med Chem Lett, 2011).
# Experiments:
# [1] = biological target: Tyrosine-protein kinase Fer (Homo sapiens) (UniProt P16591); test: Inhibition of human Fer at 10 uM after 60 mins by TR-FRET assay; values are per cent of control
# [2] = biological target: RAC-alpha serine/threonine-protein kinase (Homo sapiens) (UniProt P31749); test: Inhibition of human PKBalpha at 10 uM after 60 mins by TR-FRET assay; values are per cent of control
# RAC-alpha serine/threonine-protein kinase (Homo sapiens), sequence (P31749 whole entry): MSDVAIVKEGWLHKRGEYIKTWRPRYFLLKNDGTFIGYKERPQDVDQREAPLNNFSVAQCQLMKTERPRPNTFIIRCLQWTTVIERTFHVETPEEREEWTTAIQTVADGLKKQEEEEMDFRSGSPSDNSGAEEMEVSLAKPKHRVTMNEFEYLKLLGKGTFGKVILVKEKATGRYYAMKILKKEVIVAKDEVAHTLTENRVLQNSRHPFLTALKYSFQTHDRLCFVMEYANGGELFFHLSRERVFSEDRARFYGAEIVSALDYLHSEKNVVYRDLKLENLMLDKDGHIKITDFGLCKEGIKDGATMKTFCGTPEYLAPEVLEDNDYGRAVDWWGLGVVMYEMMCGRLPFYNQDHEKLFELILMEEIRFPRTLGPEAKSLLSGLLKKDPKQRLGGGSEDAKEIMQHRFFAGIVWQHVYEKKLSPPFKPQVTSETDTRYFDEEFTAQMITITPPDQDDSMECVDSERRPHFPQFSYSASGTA
# [3] = biological target: Proto-oncogene tyrosine-protein kinase Src (Homo sapiens) (UniProt P12931); test: Inhibition of human c-SRC at 10 uM after 60 mins by TR-FRET assay; values are per cent of control
# [4] = test system: Tyrosine-protein kinase ABL1 (Homo sapiens), P00519 [Y253F]; test: Inhibition of human Abl Y253F mutant at 10 uM after 60 mins by TR-FRET assay; values are per cent of control
# [5] = biological target: Serine/threonine-protein kinase WNK2 (Homo sapiens) (UniProt Q9Y3S1); test: Inhibition of human WNK2 at 10 uM after 60 mins by TR-FRET assay; values are per cent of control
# [6] = biological target: Mitogen-activated protein kinase 12 (Homo sapiens) (UniProt P53778); test: Inhibition of human SAPK3 at 10 uM after 60 mins by TR-FRET assay; details: values are per cent of control
# Mitogen-activated protein kinase 12 (Homo sapiens), sequence (P53778 whole entry): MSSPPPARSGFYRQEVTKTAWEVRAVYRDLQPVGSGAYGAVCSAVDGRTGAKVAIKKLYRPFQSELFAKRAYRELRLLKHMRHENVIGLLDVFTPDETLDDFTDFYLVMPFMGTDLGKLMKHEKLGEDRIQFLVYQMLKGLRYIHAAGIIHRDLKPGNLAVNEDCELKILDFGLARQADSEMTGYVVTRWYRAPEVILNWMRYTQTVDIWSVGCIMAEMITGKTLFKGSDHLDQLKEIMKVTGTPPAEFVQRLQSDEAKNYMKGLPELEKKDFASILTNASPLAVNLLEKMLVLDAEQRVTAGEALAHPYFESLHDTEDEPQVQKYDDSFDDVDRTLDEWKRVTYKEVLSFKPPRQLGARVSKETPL
# [7] = test system: Epidermal growth factor receptor (Homo sapiens), P00533 [L858R]; test: Inhibition of human EGFR L858R mutant at 10 uM after 60 mins by TR-FRET assay; format: protein assay; details: values are per cent of control
# [8] = test system: Platelet-derived growth factor receptor alpha (Homo sapiens), P16234 [D842V]; test: Inhibition of human PDGFRalpha D842V mutant at 10 uM after 60 mins by TR-FRET assay; values are per cent of control
# [9] = test system: Tyrosine-protein kinase ABL1 (Homo sapiens), P00519 [T315I]; test: Inhibition of human Abl T315I mutant at 10 uM after 60 mins by TR-FRET assay; values are per cent of control
# [10] = biological target: Ephrin type-B receptor 2 (Homo sapiens) (UniProt P29323); test: Inhibition of human EphB2 at 10 uM after 60 mins by TR-FRET assay; details: values are per cent of control
# [11] = biological target: Tyrosine-protein kinase ABL2 (Mus musculus) (UniProt Q4JIM5); test: Inhibition of mouse Arg at 10 uM after 60 mins by TR-FRET assay; values are per cent of control
# [12] = biological target: Receptor tyrosine-protein kinase erbB-4 (Homo sapiens) (UniProt Q15303); test: Inhibition of human ErbB4 at 10 uM after 60 mins by TR-FRET assay; details: values are per cent of control
# [13] = biological target: mTOR/FKBP12A/FKBP12B (Homo sapiens) (UniProt P62942+P68106+P42345); test: Inhibition of human mTOR/FKBP12 at 10 uM after 60 mins by TR-FRET assay; format: protein-complex assay; details: values are per cent of control
# [14] = test system: Tyrosine-protein kinase ABL1 (Homo sapiens), P00519 [Q252H]; test: Inhibition of human Abl Q252H mutant at 10 uM after 60 mins by TR-FRET assay; values are per cent of control
# [15] = biological target: Macrophage-stimulating protein receptor (Homo sapiens) (UniProt Q04912); test: Inhibition of human Ron at 10 uM after 60 mins by TR-FRET assay; details: values are per cent of control
# [16] = biological target: Death-associated protein kinase 1 (Homo sapiens) (UniProt P53355); test: Inhibition of human DAPK1 at 10 uM after 60 mins by TR-FRET assay; values are per cent of control
# [17] = biological target: Calcium/calmodulin-dependent protein kinase type II subunit gamma (Homo sapiens) (UniProt Q13555); test: Inhibition of human CaMK2gamma at 10 uM after 60 mins by TR-FRET assay; values are per cent of control
# [18] = biological target: SRSF protein kinase 2 (Homo sapiens) (UniProt P78362); test: Inhibition of human SRPK2 at 10 uM after 60 mins by TR-FRET assay; values are per cent of control
# [19] = biological target: Ephrin type-A receptor 1 (Homo sapiens) (UniProt P21709); test: Inhibition of human EphA1 at 10 uM after 60 mins by TR-FRET assay; values are per cent of control
# Ephrin type-A receptor 1 (Homo sapiens), sequence (P21709 whole entry): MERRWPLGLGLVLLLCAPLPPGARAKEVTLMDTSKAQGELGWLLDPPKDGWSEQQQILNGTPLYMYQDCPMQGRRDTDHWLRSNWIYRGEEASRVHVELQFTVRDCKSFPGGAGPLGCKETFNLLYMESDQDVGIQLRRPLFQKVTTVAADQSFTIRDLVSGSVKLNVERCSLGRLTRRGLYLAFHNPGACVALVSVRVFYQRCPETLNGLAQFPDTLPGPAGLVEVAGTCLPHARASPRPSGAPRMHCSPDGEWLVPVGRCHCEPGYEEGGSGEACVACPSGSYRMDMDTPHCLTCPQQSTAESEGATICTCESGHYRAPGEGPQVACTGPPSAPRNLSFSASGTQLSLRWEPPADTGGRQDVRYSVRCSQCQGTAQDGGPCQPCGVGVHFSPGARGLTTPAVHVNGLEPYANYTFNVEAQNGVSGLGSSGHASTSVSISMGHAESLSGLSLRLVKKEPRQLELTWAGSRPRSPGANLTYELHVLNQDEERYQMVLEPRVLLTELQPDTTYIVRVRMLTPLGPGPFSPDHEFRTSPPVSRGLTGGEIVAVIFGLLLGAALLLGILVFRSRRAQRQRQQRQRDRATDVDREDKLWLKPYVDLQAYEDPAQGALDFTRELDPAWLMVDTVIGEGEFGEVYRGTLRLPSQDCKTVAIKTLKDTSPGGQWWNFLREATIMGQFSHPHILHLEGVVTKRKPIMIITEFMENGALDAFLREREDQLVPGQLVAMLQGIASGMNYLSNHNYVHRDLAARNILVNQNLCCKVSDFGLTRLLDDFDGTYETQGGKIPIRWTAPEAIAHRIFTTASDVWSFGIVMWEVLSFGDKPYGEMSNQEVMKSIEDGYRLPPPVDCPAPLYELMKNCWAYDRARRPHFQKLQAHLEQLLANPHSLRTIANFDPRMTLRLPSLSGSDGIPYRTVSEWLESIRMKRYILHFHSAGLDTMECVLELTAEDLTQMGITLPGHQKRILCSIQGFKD
# [20] = biological target: Myotonin-protein kinase (Homo sapiens) (UniProt Q09013); test: Inhibition of human DMPK at 10 uM after 60 mins by TR-FRET assay; values are per cent of control
# [21] = biological target: Rho-associated protein kinase 2 (Homo sapiens) (UniProt O75116); test: Inhibition of human ROCK-2 at 10 uM after 60 mins by TR-FRET assay; values are per cent of control
# Rho-associated protein kinase 2 (Homo sapiens), sequence (O75116 whole entry, looked up): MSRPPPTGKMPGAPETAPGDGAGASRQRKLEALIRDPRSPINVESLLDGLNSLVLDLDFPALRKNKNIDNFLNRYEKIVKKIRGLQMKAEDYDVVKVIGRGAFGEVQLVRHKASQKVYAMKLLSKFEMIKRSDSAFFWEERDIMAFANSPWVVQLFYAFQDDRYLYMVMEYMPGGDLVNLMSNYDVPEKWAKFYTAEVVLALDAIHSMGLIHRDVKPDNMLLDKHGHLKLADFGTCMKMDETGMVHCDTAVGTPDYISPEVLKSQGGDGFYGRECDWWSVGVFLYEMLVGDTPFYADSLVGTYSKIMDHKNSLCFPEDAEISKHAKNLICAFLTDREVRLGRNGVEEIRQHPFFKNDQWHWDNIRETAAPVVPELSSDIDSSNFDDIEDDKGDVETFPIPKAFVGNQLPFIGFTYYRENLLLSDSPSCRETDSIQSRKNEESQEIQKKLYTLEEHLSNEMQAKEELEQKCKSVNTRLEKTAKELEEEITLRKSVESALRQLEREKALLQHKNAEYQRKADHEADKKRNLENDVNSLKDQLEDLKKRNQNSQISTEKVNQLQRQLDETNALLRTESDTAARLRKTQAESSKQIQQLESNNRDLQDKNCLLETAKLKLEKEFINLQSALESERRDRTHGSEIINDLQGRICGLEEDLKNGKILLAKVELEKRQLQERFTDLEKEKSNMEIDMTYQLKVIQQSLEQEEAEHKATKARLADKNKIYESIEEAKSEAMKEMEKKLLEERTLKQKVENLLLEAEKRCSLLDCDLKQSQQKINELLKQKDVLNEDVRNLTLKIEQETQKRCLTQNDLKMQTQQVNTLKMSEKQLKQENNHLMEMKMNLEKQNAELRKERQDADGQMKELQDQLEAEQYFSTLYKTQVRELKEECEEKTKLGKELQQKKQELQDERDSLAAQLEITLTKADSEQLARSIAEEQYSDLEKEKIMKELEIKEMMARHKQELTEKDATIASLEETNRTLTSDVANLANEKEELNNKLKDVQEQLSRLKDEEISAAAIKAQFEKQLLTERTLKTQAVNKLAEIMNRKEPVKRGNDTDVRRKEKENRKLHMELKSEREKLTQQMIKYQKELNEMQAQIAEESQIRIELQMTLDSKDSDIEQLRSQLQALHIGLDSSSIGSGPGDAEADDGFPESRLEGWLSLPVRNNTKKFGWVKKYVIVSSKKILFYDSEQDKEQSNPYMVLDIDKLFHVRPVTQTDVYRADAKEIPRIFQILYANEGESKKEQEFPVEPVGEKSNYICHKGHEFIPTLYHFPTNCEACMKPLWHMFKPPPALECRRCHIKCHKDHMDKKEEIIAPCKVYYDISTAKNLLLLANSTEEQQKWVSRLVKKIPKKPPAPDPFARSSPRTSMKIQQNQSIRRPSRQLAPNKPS
# [22] = biological target: Cyclin-dependent kinase 5/CDK5 activator 1 (Homo sapiens) (UniProt Q00535+Q15078); test: Inhibition of human CDK5/p25 at 10 uM after 60 mins by TR-FRET assay; values are per cent of control
# [23] = biological target: Ephrin type-A receptor 2 (Homo sapiens) (UniProt P29317); test: Inhibition of human EphA2 at 10 uM after 60 mins by TR-FRET assay; values are per cent of control
# Ephrin type-A receptor 2 (Homo sapiens), sequence (P29317 whole entry): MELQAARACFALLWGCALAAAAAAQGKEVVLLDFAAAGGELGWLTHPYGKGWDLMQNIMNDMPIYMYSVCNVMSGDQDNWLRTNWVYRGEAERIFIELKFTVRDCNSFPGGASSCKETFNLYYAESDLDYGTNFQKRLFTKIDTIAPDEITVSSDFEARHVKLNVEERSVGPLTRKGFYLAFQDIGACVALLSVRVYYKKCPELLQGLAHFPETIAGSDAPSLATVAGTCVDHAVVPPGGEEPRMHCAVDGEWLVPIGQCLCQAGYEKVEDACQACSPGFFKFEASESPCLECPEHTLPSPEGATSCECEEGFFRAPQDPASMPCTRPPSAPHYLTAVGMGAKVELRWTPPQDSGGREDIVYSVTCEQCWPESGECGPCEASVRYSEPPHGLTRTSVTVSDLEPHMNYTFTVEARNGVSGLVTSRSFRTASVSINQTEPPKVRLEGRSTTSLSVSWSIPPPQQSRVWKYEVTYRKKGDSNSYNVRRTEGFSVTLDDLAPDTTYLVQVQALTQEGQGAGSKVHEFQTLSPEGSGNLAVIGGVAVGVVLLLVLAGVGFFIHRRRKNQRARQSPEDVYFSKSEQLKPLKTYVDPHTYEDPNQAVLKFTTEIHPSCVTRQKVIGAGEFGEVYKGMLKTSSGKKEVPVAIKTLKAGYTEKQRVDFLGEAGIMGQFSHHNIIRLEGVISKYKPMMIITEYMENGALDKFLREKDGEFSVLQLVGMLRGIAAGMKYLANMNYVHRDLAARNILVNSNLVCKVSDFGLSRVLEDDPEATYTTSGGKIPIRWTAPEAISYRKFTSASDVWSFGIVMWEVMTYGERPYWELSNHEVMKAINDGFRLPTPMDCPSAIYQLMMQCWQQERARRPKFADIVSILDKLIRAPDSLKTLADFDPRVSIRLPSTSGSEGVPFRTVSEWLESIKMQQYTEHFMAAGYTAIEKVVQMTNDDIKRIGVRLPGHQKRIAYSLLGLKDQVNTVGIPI
# [24] = biological target: Cyclin-dependent kinase 2/cyclin E (Homo sapiens) (UniProt P24864+P24941+O96020); test: Inhibition of human CDK2/cyclinE at 10 uM after 60 mins by TR-FRET assay; values are per cent of control
# [25] = biological target: Tyrosine-protein kinase HCK (Homo sapiens) (UniProt P08631); test: Inhibition of human Hck at 10 uM after 60 mins by TR-FRET assay; values are per cent of control
# Tyrosine-protein kinase HCK (Homo sapiens), sequence (P08631 2-526 limits assumed): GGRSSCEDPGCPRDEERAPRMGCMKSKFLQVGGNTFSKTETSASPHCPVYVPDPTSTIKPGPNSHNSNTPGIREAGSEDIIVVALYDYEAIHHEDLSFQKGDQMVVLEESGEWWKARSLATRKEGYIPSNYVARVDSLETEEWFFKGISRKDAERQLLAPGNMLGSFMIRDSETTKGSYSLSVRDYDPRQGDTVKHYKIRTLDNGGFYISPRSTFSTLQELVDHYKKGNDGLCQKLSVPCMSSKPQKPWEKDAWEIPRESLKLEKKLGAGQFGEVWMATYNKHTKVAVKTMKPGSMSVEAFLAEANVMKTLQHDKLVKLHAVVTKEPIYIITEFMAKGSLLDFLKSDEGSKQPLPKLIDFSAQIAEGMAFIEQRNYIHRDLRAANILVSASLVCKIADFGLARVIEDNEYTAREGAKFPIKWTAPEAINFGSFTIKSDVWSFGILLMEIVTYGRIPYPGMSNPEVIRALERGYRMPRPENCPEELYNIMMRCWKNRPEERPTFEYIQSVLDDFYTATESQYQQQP
# [26] = biological target: Serine/threonine-protein kinase pim-2 (Homo sapiens) (UniProt Q9P1W9); test: Inhibition of human Pim-2 at 10 uM after 60 mins by TR-FRET assay; values are per cent of control
# [27] = biological target: Tyrosine-protein kinase TXK (Homo sapiens) (UniProt P42681); test: Inhibition of human Txk at 10 uM after 60 mins by TR-FRET assay; values are per cent of control
# [28] = biological target: Serine/threonine-protein kinase Nek7 (Homo sapiens) (UniProt Q8TDX7); test: Inhibition of human NEK7 at 10 uM after 60 mins by TR-FRET assay; values are per cent of control
# Serine/threonine-protein kinase Nek7 (Homo sapiens), sequence (Q8TDX7 whole entry, looked up): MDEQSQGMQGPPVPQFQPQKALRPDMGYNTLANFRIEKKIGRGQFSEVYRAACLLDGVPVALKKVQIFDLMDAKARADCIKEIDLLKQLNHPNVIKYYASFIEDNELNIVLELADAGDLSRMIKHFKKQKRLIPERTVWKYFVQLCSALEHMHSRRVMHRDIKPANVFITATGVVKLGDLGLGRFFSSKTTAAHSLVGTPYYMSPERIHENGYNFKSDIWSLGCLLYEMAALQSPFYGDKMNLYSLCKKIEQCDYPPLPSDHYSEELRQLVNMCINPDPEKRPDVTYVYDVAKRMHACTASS
smiles,measurement,setting,value
S=c1[nH]nc(-c2ccncc2)n1-c1ccc2ccccc2c1,residual activity,[1],99%
same,residual activity,[2],99%
same,residual activity,[3],93%
same,residual activity,[4],105%
same,residual activity,[5],108%
same,residual activity,[6],110%
same,residual activity,[7],75%
same,residual activity,[8],122%
same,residual activity,[9],110%
same,residual activity,[10],105%
same,residual activity,[11],101%
same,residual activity,[12],99%
same,residual activity,[13],107%
same,residual activity,[14],111%
same,residual activity,[15],110%
same,residual activity,[16],108%
same,residual activity,[17],118%
same,residual activity,[18],110%
same,residual activity,[19],103%
same,residual activity,[20],111%
same,residual activity,[21],101%
same,residual activity,[22],112%
same,residual activity,[23],102%
same,residual activity,[24],108%
same,residual activity,[25],112%
same,residual activity,[26],111%
same,residual activity,[27],93%
same,residual activity,[28],112%
